# pIC50: −log10 of the molar value. Like-named read-outs stand apart in the source and are kept apart here.
# Experiments:
# [1] = system: HeLa cells; test: Cell toxicity (MTS cell viability assay); type: cell-based, human; settings: saponin alone
# Procedure: (§1) Cell viability was determined by an MTS-assay, performed according to the manufacturer's instruction (CellTiter 96® AQueous One Solution Cell Proliferation Assay, Promega). Briefly, the MTS solution was diluted 20× in DMEM without phenol red (PAN-Biotech GmbH) supplemented with 10% FBS (PAN-Biotech GmbH). The cells were washed once with 200 μL PBS per well, after which 100 μL diluted MTS solution was added per well. The plate was incubated for approximately 20-30 minutes at 37° C. Subsequently, the optical density at 492 nm was measured on a Thermo Scientific Multiskan FC plate reader (Thermo Scientific).
# [2] = system: HSP27 mRNA expression in A431 cells; test: HSP27 gene silencing (qPCR) in A431 cells; type: cell-based; settings: Homo sapiens, A-431, saponin titrated +50 nM Trastuzumab-HSP27BNA
# From the text: RNA Isolation and Gene Expression Analysis
# RNA from cells was isolated and analysed according to standard protocols (Biorad).
# [3] = system: human red blood cells (RBC); test: Haemolysis assay; type: cell-based; settings: fresh human red blood cells
# Procedure: Red blood cells (RBCs) were isolated from a buffy coat using a Ficoll gradient. The obtained RBC pellet (˜4-5 ml) was washed 2× with 50 ml DPBS (without Ca^2+/Mg^2+, PAN-Biotech GmbH). Cells were pelleted by centrifugation for 10 min, 800×g at RT. RBC were counted and resuspended at 500,000,000 c/ml in DPBS (without Ca^2+/Mg^2+), based on total cell count. SO1861-linker dilutions were prepared in DPBS (with Ca^2+/Mg^2+, PAN-Biotech GmbH), at 1.11× final strength. For positive lysis control a 0.02% Triton-X100 solution was prepared in DPBS^+/+. Of all compound solutions 135 μl was dispensed/well in a 96 well V-bottom plate. To this 15 μl RBC suspension was added and mixed shortly (10 sec-600 rpm). The plate was incubated 30 min at RT, with gentle agitation. Afterwards the plate was spun for 10 min at 800×g to pellet the RBC and 100-120 μl supernatant was transferred to a standard 96 wp. Subsequently, the OD at 405 nm was measured on a Thermo Scientific Multiskan FC plate reader (Thermo Scientific).
# [4] = Release kinetics assay; type: physicochemical; settings: pH 4.0, 37° C.
# Procedure: The SO1861 conjugate of interest was dissolved in an acetate buffer (20 mM, pH 4.0 or pH 5.0), a phosphate buffer (20 mM) or in a PBS buffer (pH 7.4) with a final concentration of 10 μM at 20° C. or at 37° C. The release of SO1861 was followed overtime by monitoring the decrease of the UPLC-UV 4 peak area of the SO1861 conjugate of interest at different time points.
# [5] = system: A431 cells; test: Cell toxicity (MTS cell viability assay); type: cell-based, human; settings: saponin alone
# Procedure: as §1
# [6] = system: HeLa cells; type: cell-based, human
# Procedure: as §1
# [7] = system: A431 cells; type: cell-based, human
# Procedure: as §1
# [8] = +5 pM EGFdianthin or 10 pM cetuximab-saporin or 50 pM Trastuzumab-saporin
# [9] = read-out: IC50 nM (Activity; +5 pM EGFdianthin), saponin titrated +5 pM EGFdianthin
Structure (SMILES),pIC50 ([1]; Homo sapiens),pIC50 [2],pIC50 ([3]; Erythrocyte),time to 50% release of SO1861 [4] [h],pIC50 [1],pIC50 [5],"cell-killing activity compared with the SO1861 derivatives [6, 8]","IC50 [6, 9] [nM]","cell-killing activity compared with the SO1861 derivatives [7, 8]","IC50 [7, 9] [nM]",pIC50 [3]
CC(=O)OC1C(C)OC(OC2C(C)OC(OC(=O)[C@]34CCC(C)(C)CC3C3=CCC5[C@@]6(C)CC[C@H](OC7OC(C(=O)O)C(O)C(OC8OCC(O)C(O)C8O)C7OC7OC(CO)C(O)C(O)C7O)[C@@](C)(C=NNC(=O)N7CCN(C(=O)CCCCCN8C(=O)C=CC8=O)CC7)C6CC[C@@]5(C)[C@]3(C)C[C@H]4O)C(OC3OC(C)C(OC4OCC(O)C(OC5OC(CO)C(O)C(O)C5O)C4O)C(O)C3O)C2O)C(O)C1OC1OCC(O)C(O)C1O (stereo partly drawn) [SO1861-SC-Mal],< 4.00,6.22,3.60,,,,,,,,
CC(=O)OC1C(C)OC(OC2C(C)OC(OC(=O)[C@]34CCC(C)(C)CC3C3=CCC5[C@@]6(C)CC[C@H](OC7OC(C(=O)O)C(O)C(OC8OCC(O)C(O)C8O)C7OC7OC(CO)C(O)C(O)C7O)[C@@](C)(C=NNC(=O)CCCCCN7C(=O)CC(SCCO)C7=O)C6CC[C@@]5(C)[C@]3(C)C[C@H]4O)C(OC3OC(C)C(OC4OCC(O)C(OC5OC(CO)C(O)C(O)C5O)C4O)C(O)C3O)C2O)C(O)C1OC1OCC(O)C(O)C1O (stereo partly drawn) [SO1861-EMCH (blocked)],,,5.22,12,,,,,,,
CC(=O)O[C@H]1[C@H](O[C@@H]2OC[C@@H](O)[C@H](O)[C@H]2O)[C@@H](O)[C@H](O[C@@H]2[C@H](O)[C@@H](O[C@@H]3O[C@@H](C)[C@H](O[C@@H]4OC[C@@H](O)[C@H](O[C@@H]5O[C@H](CO)[C@@H](O)[C@H](O)[C@H]5O)[C@H]4O)[C@@H](O)[C@H]3O)[C@H](OC(=O)[C@]34CCC(C)(C)C[C@H]3C3=CC[C@@H]5[C@@]6(C)CC[C@H](O[C@@H]7O[C@H](C(=O)O)[C@@H](O)[C@H](O[C@@H]8OC[C@@H](O)[C@H](O)[C@H]8O)[C@H]7O[C@@H]7O[C@H](CO)[C@H](O)[C@H](O)[C@H]7O)[C@@](C)(C=O)[C@@H]6CC[C@@]5(C)[C@]3(C)C[C@H]4O)O[C@@H]2C)O[C@@H]1C [SO1861],,,,,5.05,5.70,strongest cell-killing activity,500,strongest cell-killing activity,300,5.00

# — patent US20240115712A1, “SEMICARBAZONE-BASED SAPONIN CONJUGATE” (priority 2021, published 2024)
